Experimental data as given in article PMC6931124, “NPY1R-targeted peptide-mediated delivery of a dual PPARα/γ agonist to adipocytes enhances adipogenesis and prevents diabetes progression” (Molecular Metabolism, 2019).
Entries after “also recorded” stand apart in the source; their conditions may differ.

Tests used:
[1] = tested on: SGBS preadipocytes; assay: AdipoRed adipogenesis assay, SGBS; format: cell-based, human; settings: 24 h; tesa 10/25/100 μM, tesa-NPY 100 μM; AdipoRed fluorescence, DMSO = 100%; n = 3 in quadruplicate
Experimental: 3T3-L1 or SGBS cells were seeded into 96-well plates and grown to complete confluency (set as day 0). On day 2 of confluence, the 3T3-L1 cells were differentiated by DMEM High Glucose Medium supplemented with 10% (v/v) not-heat inactivated FCS, 0.5 mM IBMX, 167 nM human insulin, and 1 μM dexamethasone (differentiation medium). On day 4, the medium was replaced by insulin medium (DMEM High Glucose Medium, 10% not-heat inactivated FCS, and 167 nM human insulin). On day 6, the medium was changed to standard culture medium and changed every other day until full differentiation was achieved (on day 8). The SGBS cells were differentiated as previously described. […] On day 4, the medium was replaced by 3FC medium (DMEM High Glucose Medium and Hams F12 (1:1 (v/v))) without FCS and supplemented with 0.01 mg human apo-transferrin, 20 nM human insulin, triiodo-L-thyronine, and 100 nM hydrocortisone. The medium was changed every second day until full differentiation was achieved (day 10). […]
(A, B) Cells were differentiated and stimulated according to the protocol depicted for 3T3-L1 (A) and for SGBS (B). […] (E,F) Expression of adipocyte-enriched genes in 3T3-L1 (E) or SGBS (F) adipocytes analyzed by qPCR. […] Statistical significances refer to DMSO-treated cells and were determined by one-way analysis of variance (ANOVA) followed by Dunnett's multiple comparison test, *≤0.05, **p ≤ 0.01, ***p ≤ 0.001.

[2] = Body weight change in db/db mice; format: in vivo; settings: 2.5 μM/kg/day, 8 days, tesa oral, peptides i.p., n = 5
Experimental: (§1) All of the experiments were performed according to the animal ethical laws of the state Saxony, Germany, and were approved by the local animal ethics review board (Landesdirektion Sachsen, Leipzig, Germany). Female db/db mice 12–15 weeks of age were purchased from Taconic (Denmark) and housed in groups of 5 in temperature- and humidity-controlled facilities in a 12 h:12 h light–dark cycle and had free access to tap water and food (regular chow, Sniff, Soest, Germany). Three out of seven groups served as controls (N = 15, see Table 1). The 5 db/db mice were untreated and 10 db/db mice were vehicle treated either orally or intraperitoneally (i.p.). […]
(§2) All of the mice were monitored for 9 days during the treatment period. Body weight, food intake, and water uptake were recorded daily and body composition (lean body mass and whole body fat mass) was recorded at the beginning, middle, and end of the study in the conscious mice using an EchoMRI system (Echo Medical Systems, Houston, TX, USA). At the beginning and end of the treatment period, the HbA1c levels were determined from 5 μl of whole venous blood samples using an automated chemical analyzer at the Institute of Laboratory Medicine and Clinical Chemistry and beta-ketone using an automated glucose monitor (FreeStyle Precision H, Abbott GmbH, Ludwigshafen, Germany). […]

[3] = HbA1C; format: in vivo; settings: db/db mice, 2.5 μM/kg/day, 8 days
Experimental: as §1, §2

[4] = tested on: PPARγ mRNA in liver; assay: PPARγ mRNA expression in liver; format: in vivo; settings: db/db mice, 2.5 μM/kg/day, 8 days; qRT-PCR relative to control animals
Experimental: The 3T3-L1 or SGBS cells were seeded into 6-well plates and differentiated as previously described. Tesa or peptides were added to the differentiation medium at a concentration of 100 μM on day 2, followed by 12 h or 24 h incubation. On day 4, the cells were washed two times with PBS, harvested by trypsinization, and stored at −70 °C until RNA isolation was performed. […] N ≥ 3 independent experiments with two replicates were performed. For the cell culture experiments, the data were analyzed according to the 2^−ΔΔCt method using 36B4 or GAPDH as housekeeping genes and DMSO treatment as a control. Liver mRNA expression was calculated relative to 18sRNA, which was used as an internal control due to its resistance to glucose-dependent regulation. The mRNA levels were quantified using the standard curve method of QuantStudio 6 Flex software (Applied Biosystems, Foster City, CA, USA), determining the crossing points of the individual samples using an algorithm that identifies the first turning point of the fluorescence curve. Amplification of the specific transcripts was confirmed by the melting curve profiles (cooling the sample to 68 °C and heating slowly to 95 °C while measuring the fluorescence) at the end of each PCR [53]. […]

[5] = volunteers, ref [111]; cited from earlier work
Text: Thus, the observed anti-diabetic effects are assumed to result from adipocyte-specific PPARγ-mediate ...

[6] = tested on: db/db mice; settings: ref Cha et al. [93]; cited from earlier work
Text: To strengthen this finding, we examined the expression of the PPARγ-responsive genes adiponectin, Fabp4, and Cidec [[71], [72], [73], [74],[88], [89], [90], [91]]. Adiponectin may mediate the beneficial effects of PPARγ agonists for the treatment of diabetes, as it is an insulin-sensitizing adipokine that affects hepatic glucose output and decre ...

[7] = set-up: method as in Ljung et al. [74]; settings: ref Ljung et al. [74]; cited from earlier work
Text: In the present study, we used db/db mice to evaluate the anti-diabetic potency of the peptide conjugate, as these mice are known to develop severe insulin resistance and hypertriglyceridemia.

CCO[C@@H](Cc1ccc(OCCc2ccc(OS(C)(=O)=O)cc2)cc1)C(=O)O [tesa, tesaglitazar]
adipogenesis (triglyceride content), SGBS [1]: enhanced adipogenesis in both cell lines
body weight change, in words [2]: did not change significantly; also recorded: can prevent this weight loss
HbA1C change ([3]; vehicle/untreated increased by approximately 2%, n = 5): graduated reduced increase
diabetes progression ([3]; 12-16 weeks old): deceleration of disease progression
expression of PPARγ in the liver [4]: significantly enhanced the expression of PPARγ in the liver
absorption after oral dosing [5]: rapidly and completely absorbed after oral dosing
adiponectin mRNA expression and plasma levels [6]: induces increased adiponectin mRNA expression and plasma levels in db/db mice
weight gain in treated animals [7]: does not lead to weight gain in treated animals
